One block for each molecule: values may come before it.
What was measured:
CYP3A4 [1] = molecular target: CYP3A4 (Homo sapiens, UniProt P08684); assay: Midazolam 1'-hydroxylation; type: in vitro ADME; settings: for % inhibition (10 µM) of CYP3A4, class / % inhibition (10 µM) of CYP3A4 / IC50: midazolam hydroxylation; for % inhibition (10 µM) of CYP3A4: average of triplicates ± S.D.; for IC50: read-out: IC50 CYP3A4
CYP3A4 [2] = settings: cited from earlier work
[3] = test system: tamoxifen N-demethylation (N-desmethyl TAM formation) by human liver microsomes; assay: in vitro; settings: female, pH 7.4
[4] = test system: tamoxifen 4-hydroxylation (4-OH TAM formation) by human liver microsomes; assay: in vitro; settings: female, pH 7.4
[5] = test system: tamoxifen α-hydroxylation (α-OH TAM formation) by human liver microsomes; assay: in vitro; settings: female, pH 7.4
CYP2D6 = CYP2D6 (Homo sapiens, UniProt P10635); assay: Dextromethorphan demethylation; type: in vitro ADME
Chain of CYP2D6 (P10635 whole entry): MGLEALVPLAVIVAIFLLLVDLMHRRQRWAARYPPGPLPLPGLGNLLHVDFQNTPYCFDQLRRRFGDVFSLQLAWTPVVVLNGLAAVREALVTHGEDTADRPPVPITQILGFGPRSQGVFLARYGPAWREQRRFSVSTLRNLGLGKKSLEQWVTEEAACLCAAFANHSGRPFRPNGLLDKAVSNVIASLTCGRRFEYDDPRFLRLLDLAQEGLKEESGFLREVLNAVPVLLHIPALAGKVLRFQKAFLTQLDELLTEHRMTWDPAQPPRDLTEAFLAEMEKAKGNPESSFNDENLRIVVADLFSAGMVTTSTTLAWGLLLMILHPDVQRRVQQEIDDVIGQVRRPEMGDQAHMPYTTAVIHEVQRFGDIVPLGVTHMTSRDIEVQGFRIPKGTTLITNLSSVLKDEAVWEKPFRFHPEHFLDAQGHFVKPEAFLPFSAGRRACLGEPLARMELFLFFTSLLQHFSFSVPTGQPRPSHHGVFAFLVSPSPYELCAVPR

Chain of CYP3A4 (Homo sapiens, UniProt P08684) (P08684 whole entry): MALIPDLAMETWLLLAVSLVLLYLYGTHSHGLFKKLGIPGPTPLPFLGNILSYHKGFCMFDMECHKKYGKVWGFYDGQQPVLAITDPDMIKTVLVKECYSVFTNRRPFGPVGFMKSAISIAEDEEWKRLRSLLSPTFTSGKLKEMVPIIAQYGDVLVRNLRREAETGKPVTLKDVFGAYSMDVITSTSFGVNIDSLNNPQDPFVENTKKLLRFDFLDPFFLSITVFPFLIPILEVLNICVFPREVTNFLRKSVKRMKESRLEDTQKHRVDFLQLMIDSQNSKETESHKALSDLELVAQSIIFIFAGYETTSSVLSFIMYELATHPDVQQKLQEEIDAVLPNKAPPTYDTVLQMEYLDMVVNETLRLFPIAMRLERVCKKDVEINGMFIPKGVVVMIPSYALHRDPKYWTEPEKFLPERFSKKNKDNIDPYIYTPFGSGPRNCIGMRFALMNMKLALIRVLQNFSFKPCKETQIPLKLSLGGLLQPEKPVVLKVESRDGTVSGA

Molecule: 1-α-hydroxycimigenol-3-O- α-L-arabinopyranoside [Compound 19]
- % inhibition (10 µM) of CYP3A4, class (CYP3A4 [1]): N/A (N/A, Not active = < 50% inhibition at 10 µM)

Molecule: 1-α-hydroxycimigenol-3-O-β-D-xylopyranoside [Compound 21]
- % inhibition (10 µM) of CYP3A4, class (CYP3A4 [1]): N/A (N/A, Not active = < 50% inhibition at 10 µM)

Molecule: 7-β-hydroxycimigenol aglycone [Compound 20]
- % inhibition (10 µM) of CYP3A4 (CYP3A4 [1]): 64.9±1.1%

Molecule: 23-O-acetylshengmanol-3-β-D-xylopyranoside [Compound 12]
- CYP3A4 inhibition (in words) (CYP3A4 [2]): weak inhibitor

Molecule: 25-O-acetyl-7-β-hydroxycimigenol-3-O-β-xylopyranoside [Compound 22]
- % inhibition (10 µM) of CYP3A4 (CYP3A4 [1]): 61.8±0.2%

Molecule: 25-O-acetylcimigenol-3-O-α-arabinopyranoside [Compound 9]
- % inhibition (10 µM) of CYP3A4, class (CYP3A4 [1]): N/A (N/A, Not active = < 50% inhibition at 10 µM)

Molecule: 25-O-acetylcimigenol-3-O-β-xylopyranoside [Compound 8]
- % inhibition (10 µM) of CYP3A4, class (CYP3A4 [1]): N/A (N/A, Not active = < 50% inhibition at 10 µM)

Molecule: 25-anhydrocimigenol-3-O-β-arabinopyranoside [Compound 10]
- % inhibition (10 µM) of CYP3A4, class (CYP3A4 [1]): N/A (N/A, Not active = < 50% inhibition at 10 µM)

Molecule: 25-anhydrocimigenol-3-O-β-xylopyranoside [Compound 3]
- % inhibition (10 µM) of CYP3A4, class (CYP3A4 [1]): N/A (N/A, Not active = < 50% inhibition at 10 µM)

Molecule: COc1ccc2c(c1OC)CN(C)CCc1cc3c(cc1C(=O)C2)OCO3 [Allocryptopine, allocryptopine]
- inhibition at 20 min, 10 µM [3]: 16.8 ± 2.8%
- inhibition at 20 min, 10 µM [4]: 57.9 ± 4.3%
- inhibition at 20 min, 10 µM [5]: < 10%

Molecule: CC(=O)O[C@@H]1C[C@@]23C[C@@]24CC[C@H](O[C@@H]2OC[C@@H](O)[C@H](O)[C@H]2O)C(C)(C)[C@@H]4CC[C@H]3[C@]2(C)C[C@@H]3O[C@@]4(C[C@@H](C)[C@@H]3[C@@]12C)OC[C@@]1(C)O[C@@H]41 [Compound 1, 23-epi-26-deoxyactein]
- activity against CYP3A4 (in words) (CYP3A4 [1]): inactive
- activity against CYP2D6 (in words) (CYP2D6): inactive

Molecule: CC(=O)O[C@@H]1C[C@@]23C[C@@]24CC[C@H](O[C@@H]2OC[C@@H](O)[C@H](O)[C@H]2O)C(C)(C)[C@@H]4CC[C@H]3[C@]2(C)C[C@@H]3O[C@]4(C[C@@H](C)[C@@H]3[C@@]12C)OC[C@@]1(C)O[C@@H]41 [Compound 4, 26-deoxyactein]
- activity against CYP3A4 (in words) (CYP3A4 [1]): inactive
- % inhibition (10 µM) of CYP3A4, class (CYP3A4 [1]): N/A (N/A, Not active = < 50% inhibition at 10 µM)
- activity against CYP2D6 (in words) (CYP2D6): inactive

Molecule: CC(=O)O[C@@H]1C[C@@]23C[C@@]24CC[C@H](O[C@@H]2OC[C@@H](O)[C@H](O)[C@H]2O)C(C)(C)[C@@H]4CC[C@H]3[C@]2(C)C[C@@H]3O[C@]4(C[C@@H](C)[C@@H]3[C@@]12C)OC(=O)[C@]1(C)O[C@H]41 [Compound 5, Cimiracemoside P]
- % inhibition (10 µM) of CYP3A4, class (CYP3A4 [1]): N/A (N/A, Not active = < 50% inhibition at 10 µM)

Molecule: C=C(C)[C@@H]1O[C@@]23O[C@@H]1C[C@@H](C)[C@@H]2[C@@]1(C)[C@H](OC(C)=O)C[C@@]24C[C@@]25CC[C@H](O[C@@H]2OC[C@H](O)[C@H](O)[C@H]2O)C(C)(C)[C@@H]5CC[C@H]4[C@]1(C)[C@H]3O [Compound 6, Cimiracemoside J]
- % inhibition (10 µM) of CYP3A4, class (CYP3A4 [1]): N/A (N/A, Not active = < 50% inhibition at 10 µM)

Molecule: C=C(C)[C@@H]1O[C@@]23O[C@@H]1C[C@@H](C)[C@@H]2[C@@]1(C)[C@H](OC(C)=O)C[C@@]24C[C@@]25CC[C@H](O[C@@H]2OC[C@@H](O)[C@H](O)[C@H]2O)C(C)(C)[C@@H]5CC[C@H]4[C@]1(C)[C@H]3O [Compound 7, Cimiracemoside K]
- % inhibition (10 µM) of CYP3A4 (CYP3A4 [1]): 85.2±0.3%
- IC50 (CYP3A4 [1]): 3.8 ± 0.5 µM

Molecule: CC(=O)O[C@@H]1C[C@@]23C[C@@]24CC[C@H](O[C@@H]2OC[C@@H](O)[C@H](O)[C@H]2O)C(C)(C)[C@@H]4CC[C@H]3[C@]2(C)C[C@@H]3O[C@]4(C[C@@H](C)[C@@H]3[C@@]12C)O[C@H](O)[C@@]1(C)O[C@@H]41 [Compound 11, Actein (R,S)]
- activity against CYP3A4 (in words) (CYP3A4 [1]): inactive
- % inhibition (10 µM) of CYP3A4, class (CYP3A4 [1]): N/A (N/A, Not active = < 50% inhibition at 10 µM)
- activity against CYP2D6 (in words) (CYP2D6): inactive

Molecule: CC(=O)O[C@@H]1C[C@@]23C[C@@]24CC[C@H](O[C@@H]2OC[C@H](O)[C@H](O)[C@H]2O)C(C)(C)[C@@H]4CC[C@H]3[C@]2(C)C[C@@H]3O[C@]4(C[C@@H](C)[C@@H]3[C@@]12C)OC[C@]1(C)O[C@H]41 [Compound 13, Cimiracemoside N]
- % inhibition (10 µM) of CYP3A4, class (CYP3A4 [1]): N/A (N/A, Not active = < 50% inhibition at 10 µM)

Molecule: CC(=O)O[C@H]1[C@H](O[C@H]2CC[C@]34C[C@]35C[C@@H](OC(C)=O)[C@]3(C)[C@H]6[C@H](C)C[C@@]7(O[C@H]6C[C@@]3(C)[C@@H]5CC[C@H]4C2(C)C)O[C@H](O)[C@@]2(C)O[C@@H]72)OC[C@@H](O)[C@@H]1O [Compound 14, 2’-O-acetyl-Actein]
- % inhibition (10 µM) of CYP3A4, class (CYP3A4 [1]): N/A (N/A, Not active = < 50% inhibition at 10 µM)

Molecule: CC(=O)O[C@@H]1CO[C@@H](O[C@H]2CC[C@]34C[C@]35C[C@@H](OC(C)=O)[C@]3(C)[C@H]6[C@H](C)C[C@]7(OC(O)[C@]8(C)O[C@H]78)O[C@H]6C[C@@]3(C)[C@@H]5CC[C@H]4C2(C)C)[C@H](O)[C@H]1O (stereo partly drawn) [Compound 15, Cimiracemoside O]
- % inhibition (10 µM) of CYP3A4 (CYP3A4 [1]): 74.8±0.1%
- IC50 (CYP3A4 [1]): 5.1 ± 0.4 µM

Molecule: CC(=O)O[C@H]1CO[C@@H](O[C@H]2CC[C@]34C[C@]35CC[C@]3(C)[C@@H]([C@H](C)C[C@@H](OC(C)=O)[C@@H]6OC6(C)C)C(=O)[C@H](O)[C@@]3(C)[C@@H]5CC[C@H]4C2(C)C)[C@H](O)[C@H]1O [Compound 16, Cimiracemoside L]
- % inhibition (10 µM) of CYP3A4 (CYP3A4 [1]): 94.2±0.3%
- IC50 (CYP3A4 [1]): 2.4 ± 0.2 µM

Molecule: C[C@H](CC(=O)[C@@H]1OC1(C)C)[C@H]1C(=O)C[C@@]2(C)C3=CC[C@H]4C(C)(C)[C@@H](O[C@@H]5OC[C@@H](O)[C@H](O)[C@H]5O)CC[C@@]45C[C@@]35[C@@H](O)C[C@]12C [Compound 17, Cimicifugoside H-1]
- % inhibition (10 µM) of CYP3A4, class (CYP3A4 [1]): N/A (N/A, Not active = < 50% inhibition at 10 µM)

- Ki (CYP2D6): 0.078 µM
Molecule: CN1CCc2cc3c(cc2C(=O)Cc2ccc4c(c2C1)OCO4)OCO3 [Protopine, protopine]
